Series [1] concerns rgRSV224 virus. Put plainly: Antiviral activity: inhibition of rgRSV224 (GFP-expressing RSV) replication in HeLa cells, GFP expression read-out. In kind it is cell-based, respiratory syncytial virus (RSV). Particulars: human respiratory syncytial virus, HeLa, read-out: RSV HELA pEC50, rgRSV224 virus (MOI=1) in HeLa cells, GFP read-out (converted). Put shortly: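 HeLa cells (3,000/well) were infected with GFP-expressing rgRSV224 (MOI=1) in the presence of 9 serial 4-fold compound dilutions (0.05% DMSO) and incubated at 37° C, 5% CO2. After three days, GFP expression was measured by laser microscopy. EC50 is the concentration giving 50% inhibition of GFP expression.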

Series [2] is described as follows: Cytotoxicity in HeLa cells, ATP content measured with the ATPlite kit. Particulars: human, TOX HELA pCC50. The series is classed as cell-based.

The term melting point denotes the temperature of the solid-liquid transition. In general, CC50 refers to the concentration at which the toxic effect on the cells reaches its halfway point. A lower CC50 goes with greater toxicity to the cells.

`CCc1cc(C(=O)N2CCc3sccc3[C@H]2C)nc2cc(-c3ccc(-n4cc(C(=O)O)cn4)cc3F)nn12` (racemic) [Compound W40] showed a melting point of 168.11 °C. For the same compound, the EC50 in series [1] was 21.9 nM. Also, the CC50 at 3 days in series [2] was 36300 nM.

As to `C[C@@H]1CCCCCN1C(=O)c1cc(C2CCC2)n2nc(-c3cccc(/C=C/C(=O)O)c3F)cc2n1` [Compound M23], the melting point was 231.54 °C. In addition, the EC50 in series [1] was 44.7 nM. For the same compound, the CC50 at 3 days in series [2] was above 100000 nM.

`CC1CCCCCN1C(=O)c1cc(N2CCCC2)n2nc(-c3ccc(NC(=O)NCC4CCCO4)cc3)cc2n1` (stereo not drawn) [Compound B10] came in with a melting point of 228 to 230 °C. For the same compound, the EC50 in series [1] is 316 nM. This compound returned a CC50 at 3 days in series [2] above 100000 nM.

Compound `CCc1cc(C(=O)N2CCCCC[C@H]2C)nc2cc(-c3ccc(C4CC=C(C(=O)O)CC4)cc3F)nn12` (mixture of isomers) [Compound F69] showed a melting point of 176.26 °C. Moreover, in series [1], the EC50 was 195 nM. In series [2], this compound returned a CC50 at 3 days above 25100 nM.

`CCCC(C)N(C)C(=O)c1cc(CC)n2nc(-c3ccc(NC(=O)NCC4CCCO4)cc3F)cc2n1` (stereo not drawn) [Compound B2] displayed a melting point of 180 to 185 °C. In addition, in series [1], the EC50 was 407 nM. The same compound came in with a CC50 at 3 days in series [2] above 100000 nM.

Take `CCc1cc(C(=O)N2CCCCC[C@H]2C)nc2cc(-c3ccc(-c4ncc(C(=O)O)s4)cc3F)nn12` (racemic) [Compound F43]: the melting point came out at 177.53 °C. Moreover, the EC50 in series [1] is 61.7 nM. In series [2], this compound had a cytotoxic concentration (CC50) at 3 days of 42700 nM.

Compound `CCc1cc(C(=O)N2CCCCCC2C)nc2cc(-c3ccc(B(O)O)cc3F)nn12` (stereo not drawn) [Compound G1] showed a melting point of 195 to 200 °C. Moreover, the EC50 in series [1] was 282 nM. In addition, the CC50 at 3 days in series [2] is above 25100 nM.

Take `CC1CCCCCN1C(=O)c1cc(N2CCCCC2)n2nc(-c3ccc(NC(=O)NCC4CCCO4)cc3)cc2n1` (stereo not drawn) [Compound B11]: the melting point is 168 to 171 °C. For the same compound, in series [1], the EC50 is 282 nM. In series [2], the CC50 at 3 days was above 100000 nM.

For `CCc1cc(C(=O)N2CCCCCC2C)nc2cc(-c3ccc(C(=O)NCCO)cc3F)nn12` (stereo not drawn) [Compound L5], the melting point amounted to 177 °C. Moreover, the EC50 in series [1] is 158 nM. Further, the cytotoxic concentration (CC50) at 3 days in series [2] is above 25100 nM.

`CCc1cc(C(=O)N2CCc3ccccc3C2C)nc2cc(-c3ccc(C(=O)O)cc3F)nn12` (stereo not drawn) [Compound K1] returned a melting point of 165 to 170 °C. Besides, the EC50 in series [1] is 158 nM. This compound displayed a cytotoxic concentration (CC50) at 3 days in series [2] above 25100 nM.

`CCc1cc(C(=O)N2CCCCC2C)nc2cc(-c3ccc(NC(=O)NCC4CCCO4)cc3)nn12` (stereo not drawn) [Compound B7] displayed a melting point of 175 to 180 °C. Further, in series [1], the EC50 was 631 nM. For the same compound, the CC50 at 3 days in series [2] was above 100000 nM.

With `CCc1cc(C(=O)N2CCCCCC2C)nc2cc(-c3ccc4c(c3)CCN4C)nn12` (stereo not drawn) [Compound A10], the melting point came out at 155 °C. For the same compound, the EC50 in series [1] was 2090 nM. Further, the half-maximal cytotoxic concentration (CC50) at 3 days in series [2] is above 25100 nM.

For `CC1CCCCCN1C(=O)c1cc(N(C)C)n2nc(-c3ccc(C#N)cc3F)cc2n1` (stereo not drawn) [Compound H2], the melting point lay in the range of 194 to 195 °C. In series [1], the EC50 is 912 nM. Moreover, the CC50 at 3 days in series [2] is above 25100 nM.

In the case of `CCc1cc(C(=O)N2CCc3sccc3C2C)nc2cc(-c3ccc(N4CC[C@H](C(=O)O)C4)cc3F)nn12` (single isomer, unassigned) [Compound W43], the melting point came to 252.56 °C. Besides, the EC50 in series [1] was 2.75 nM. Further, the CC50 at 3 days in series [2] is 49000 nM.

`CC1c2ccsc2CCN1C(=O)c1cc(C2CC2)n2nc(-c3ccc(-n4cc(C(=O)O)cn4)cc3F)cc2n1` (stereo not drawn) [Compound W41] had a melting point of 257.83 °C. For the same compound, in series [1], the EC50 is 13.2 nM. The compound also displayed a CC50 at 3 days in series [2] above 25100 nM.

`CCc1cc(C(=O)N2CCCCC[C@H]2C)nc2cc(-c3ccc(C(N)=O)cc3F)nn12` [Compound I1] displayed a melting point of 180 °C. Moreover, the EC50 in series [1] is 53.7 nM. In addition, in series [2], the CC50 at 3 days was above 25100 nM.

With `CCc1cc(C(=O)N2CCCCCC2C)nc2cc(-c3csc(NC(=O)C4CC4)n3)nn12` (stereo not drawn) [Compound E30], the melting point lay in the range of 277 to 279 °C. Also, the EC50 in series [1] is 1820 nM. Besides, the CC50 at 3 days in series [2] is above 25100 nM.

With `CC(C)=Cc1cc(C(=O)N2CCCCC[C@H]2C)nc2cc(-c3ccc(N4CC[C@H](C(=O)O)C4)cc3F)nn12` [Compound W15], the melting point was found to be 189.89 °C. In addition, the EC50 in series [1] was 51.3 nM. Further, in series [2], the CC50 at 3 days is 57500 nM.

As for `CCc1cc(C(=O)N2CCCCCC2C)nc2cc(-c3ccc(C(=O)O)cc3F)nn12` (stereo not drawn) [Compound K2], the melting point amounted to 210 °C. For the same compound, in series [1], the EC50 is 562 nM. Further, the CC50 at 3 days in series [2] was above 25100 nM.

In turn, `CCc1cc(C(=O)N2CCCCCC2C)nc2cc(-c3ccc(NC(=O)OCCO)cc3F)nn12` (stereo not drawn) [Compound C4] came in with a melting point of 175 to 180 °C. In series [1], the EC50 is 110 nM. Also, the cytotoxic concentration (CC50) at 3 days in series [2] was above 25100 nM.

As to `C[C@@H]1CCCCCN1C(=O)c1cc(-c2cnn(C)c2)n2nc(-c3ccc(/C=C/C(=O)O)cc3F)cc2n1` [Compound M30], the melting point turned out to be 163 °C. In addition, in series [1], the EC50 is 40.7 nM. Moreover, the half-maximal cytotoxic concentration (CC50) at 3 days in series [2] is 28200 nM.

In turn, `CCc1cc(C(=O)N2CCCCCC2C)nc2cc(-c3ccc4[nH]cnc4c3)nn12` (stereo not drawn) [Compound A13] showed a melting point of 145 to 150 °C. The EC50 in series [1] is 331 nM. The compound further came in with a 50% cytotoxic concentration (CC50) at 3 days in series [2] above 25100 nM.

With `CCc1cc(C(=O)N2CCc3sccc3C2C)nc2cc(-c3ccc(C4C[C@H]4C(=O)O)cc3F)nn12` (single isomer, unassigned) [Compound O22], the melting point is 228.98 °C. In series [1], the EC50 was 6.92 nM. The compound further gave a 50% cytotoxic concentration (CC50) at 3 days in series [2] of 47900 nM.

As for `CCc1cc(C(=O)N2CCCCCC2C)nc2cc(-c3ccc(/C=C/C(=O)O)cc3F)nn12` (stereo not drawn) [Compound M1], the melting point lay within 205 to 210 °C. For the same compound, in series [1], the EC50 was 174 nM. In addition, in series [2], the 50% cytotoxic concentration (CC50) at 3 days was above 25100 nM.

In turn, `CCc1cc(C(=O)N2CCCCCC2C)nc2cc(-c3ccc4c(c3)CC(=O)N4)nn12` (stereo not drawn) [Compound A8] gave a melting point of 230 to 235 °C. In series [1], the EC50 is 646 nM. The compound further registered a 50% cytotoxic concentration (CC50) at 3 days in series [2] above 25100 nM.

Turning to `CCc1cc(C(=O)N2CCCC[C@H]2C)nc2cc(-c3ccc(C(N)=O)cc3)nn12` [Compound A27], the melting point lay in the range of 160 to 165 °C. Further, in series [1], the EC50 is 871 nM. The same compound gave a half-maximal cytotoxic concentration (CC50) at 3 days in series [2] above 25100 nM.

For `CCCC(=O)Nc1ccc(-c2cc3nc(C(=O)N4CCCCCC4C)cc(CC)n3n2)c(F)c1` (stereo not drawn) [Compound E4], the melting point fell in the range of 175 to 180 °C. The EC50 in series [1] is 182 nM. In series [2], this compound returned a 50% cytotoxic concentration (CC50) at 3 days above 25100 nM.

The compound `CC(C)Cc1cc(C(=O)N2CCCCC[C@H]2C)nc2cc(-c3cccc(/C=C/C(=O)O)c3F)nn12` [Compound M29] showed a melting point of 176 °C. For the same compound, in series [1], the EC50 was 38.9 nM. In series [2], this compound had a CC50 at 3 days of 67600 nM.

Consider `CCc1cc(C(=O)N2CCCCCC2C)nc2cc(-c3ccc(NC(=O)OCC4CCCN4C)cc3F)nn12` (stereo not drawn) [Compound C5], for which the melting point was 165 to 170 °C. Moreover, the EC50 in series [1] is 178 nM. The compound further gave a half-maximal cytotoxic concentration (CC50) at 3 days in series [2] of 13800 nM.

On to `CCc1cc(C(=O)N2CCCCCC2C)nc2cc(-c3ccc(-c4cccnc4)cc3F)nn12` (stereo not drawn) [Compound F4], for which the melting point lay in the range of 167 to 168 °C. Besides, the EC50 in series [1] was 724 nM. Besides, the cytotoxic concentration (CC50) at 3 days in series [2] was above 25100 nM.

The values are drawn from patent US11084826B2, “RSV antiviral pyrazolo- and triazolo-pyrimidine compounds” (Janssen Sciences Ireland Unlimited Company, priority 2015, dated 2021).
